How the values were obtained:
[1] = system: ASPC1 cells; assay: Inhibition of KRas-mediated phosphorylation of ERK (Cisbio HTRF pERK), ASPC1 cells; type: cell-based; conditions: Homo sapiens, AsPC-1 cells; for IC50: ASPC1, 3 h, 3 hr compound incubation, Cisbio pERK HTRF; for inhibition at 0.1 µM: ASPC1, single point at 100 nM, 3 hrs compound incubation
[2] = system: H727 cells; assay: Inhibition of KRas-mediated phosphorylation of ERK (Cisbio HTRF pERK), H727 cells; type: cell-based; conditions: Homo sapiens; for IC50: NCI-H727, 3 h, 3 hr compound incubation, Cisbio pERK HTRF; for inhibition at 0.1 µM: NCI-H727, single point at 100 nM, 3 hrs compound incubation
[3] = system: A549 cells; assay: Inhibition of KRas-mediated phosphorylation of ERK (Cisbio HTRF pERK), A549 cells; type: cell-based; conditions: Homo sapiens; for inhibition at 0.1 µM: single point at 100 nM, 3 hrs compound incubation; for IC50: A549, 3 h, 3 hr compound incubation, Cisbio pERK HTRF
[4] = system: H460 cells; assay: Inhibition of KRas-mediated phosphorylation of ERK (Cisbio HTRF pERK), H460 cells; type: cell-based; conditions: Homo sapiens; for inhibition at 0.1 µM: NCI-H460, single point at 100 nM, 3 hrs compound incubation; for IC50: NCI-H460, 3 h, 3 hr compound incubation, Cisbio pERK HTRF
[5] = system: HCT116 cells; assay: Inhibition of KRas-mediated phosphorylation of ERK (Cisbio HTRF pERK), HCT116 cells; type: cell-based; conditions: Homo sapiens; for inhibition at 0.1 µM: HCT-116, single point at 100 nM, 3 hrs compound incubation; for IC50: HCT-116, 3 h, 3 hr compound incubation, Cisbio pERK HTRF
[6] = system: H358 cells; assay: Inhibition of KRas-mediated phosphorylation of ERK (Cisbio HTRF pERK), H358 cells; type: cell-based; conditions: Homo sapiens; for inhibition at 0.1 µM: NCI-H358, single point at 100 nM, 3 hrs compound incubation; for IC50: NCI-H358, 3 h, 3 hr compound incubation, Cisbio pERK HTRF
[7] = target: KRas G12D (Homo sapiens, UniProt P01116, G12D); assay: biochemical; conditions: Binding to KRas (IC50 nM) G12D, TR-FRET displacement, KRas G12D
Sequence of KRas G12D (P01116 1-169 isoform P01116-2 G12D): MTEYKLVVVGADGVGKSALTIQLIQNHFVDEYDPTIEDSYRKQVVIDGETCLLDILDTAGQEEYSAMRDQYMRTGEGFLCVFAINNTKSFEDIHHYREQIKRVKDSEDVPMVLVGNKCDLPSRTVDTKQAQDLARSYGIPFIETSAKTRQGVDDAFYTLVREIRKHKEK

[8] = target: KRas G12R (Homo sapiens, UniProt P01116, G12R); assay: biochemical; conditions: Binding to KRas (IC50 nM) G12R, TR-FRET displacement, KRas G12R
Sequence of KRas G12R (P01116 1-169 isoform P01116-2 G12R): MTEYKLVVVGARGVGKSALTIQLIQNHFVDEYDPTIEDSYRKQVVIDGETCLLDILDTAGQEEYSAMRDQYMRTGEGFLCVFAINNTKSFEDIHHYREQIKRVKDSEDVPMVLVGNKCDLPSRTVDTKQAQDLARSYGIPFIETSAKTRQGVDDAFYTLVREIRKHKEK

[9] = target: KRas G12V (Homo sapiens, UniProt P01116, G12V); assay: biochemical; conditions: Binding to KRas (IC50 nM) G12V, TR-FRET displacement, KRas G12V
Sequence of KRas G12V (P01116 1-169 isoform P01116-2 G12V): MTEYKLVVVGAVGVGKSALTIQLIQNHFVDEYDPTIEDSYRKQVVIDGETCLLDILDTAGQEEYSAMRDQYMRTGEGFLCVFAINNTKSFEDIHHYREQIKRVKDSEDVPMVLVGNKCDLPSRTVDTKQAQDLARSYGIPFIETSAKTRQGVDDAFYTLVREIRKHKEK

SMILES	IC50 [1] [nM]	IC50 [2] [nM]	inhibition at 0.1 µM [3] [%]	inhibition at 0.1 µM [4] [%]	inhibition at 0.1 µM [5] [%]	inhibition at 0.1 µM [6] [%]	IC50 [7] [nM]	IC50 [8] [nM]	IC50 [9] [nM]	inhibition at 0.1 µM [1] [%]	inhibition at 0.1 µM [2] [%]	IC50 [3] [nM]	IC50 [4] [nM]	IC50 [5] [nM]	IC50 [6] [nM]
CCc1c(F)ccc2cc(O)cc(N3CCc4c(nc(OC[C@@]56CCCN5C[C@H](F)C6)nc4N4CCCn5nc(N(C)S(C)(=O)=O)cc5C4)C3)c12 [Example 334, N-(5-(7-(8-ethyl-7-fluoro-3-hydroxynaphthalen-1-yl)-2-(((2R,7aS)-2-fluorohexahydro-1H-pyrrolizin-7a-yl)methoxy)-5,6,7,8-tetrahydropyrido[3,4-d]pyrimidin-4-yl)-5,6,7,8-tetrahydro-4H-pyrazolo[1,5-a][1,4]diazepin-2-yl)-N-methylmethanesulfonamide]	999	1690	12	-1	12	2	12	43	50						
CCc1c(F)ccc2cc(O)cc(N3CCc4c(nc(OC[C@@]56CCCN5C[C@H](F)C6)nc4N4CCCn5nc(CS(=O)(=O)N(C)C)cc5C4)C3)c12 [Example 494, 1-(5-(7-(8-ethyl-7-fluoro-3-hydroxynaphthalen-1-yl)-2-(((2R,7aS)-2-fluorohexahydro-1H-pyrrolizin-7a-yl)methoxy)-5,6,7,8-tetrahydropyrido[3,4-d]pyrimidin-4-yl)-5,6,7,8-tetrahydro-4H-pyrazolo[1,5-a][1,4]diazepin-2-yl)-N,N-dimethylmethanesulfonamide]	749	2580	14	4	4	8	12	24	26	-4	13				
CCc1c(F)ccc2cc(O)cc(N3CCc4c(nc(OC[C@@]56CCCN5C[C@H](F)C6)nc4N4CCCn5nc(CCCC(=O)N(C)C)cc5C4)C3)c12 [Example 316, 4-(5-(7-(8-ethyl-7-fluoro-3-hydroxynaphthalen-1-yl)-2-(((2R,7aS)-2-fluorohexahydro-1H-pyrrolizin-7a-yl)methoxy)-5,6,7,8-tetrahydropyrido[3,4-d]pyrimidin-4-yl)-5,6,7,8-tetrahydro-4H-pyrazolo[1,5-a][1,4]diazepin-2-yl)-N,N-dimethylbutanamide]	879	687	-4	-20	-2	-22	6	6	5			1390	1770	3140	536
CCc1c(F)ccc2cc(O)cc(N3CCc4c(nc(OC[C@@]56CCCN5C[C@H](F)C6)nc4N4CCCn5nc(CN(C)S(=O)(=O)N(C)C)cc5C4)C3)c12 [Example 343, 7-(8-ethyl-7-fluoro-3-hydroxy-1-naphthyl)-2-(((2R,7aS)-2-fluorotetrahydro-1H-pyrrolizin-7a(5H)-yl)methoxy)-4-(2-((dimethylsulfamoyl)methylamino)methyl-7,8-dihydro-4H-pyrazolo[1,5-a][1,4]diazepin-5(6H)-yl)-6,8-dihydro-5H-pyrido[3,4-d]pyrimidine]	445	335	4	7	-2	-13	8	18	21						
CCc1c(F)ccc2cc(O)cc(N3CCc4c(nc(OC[C@@]56CCCN5C[C@H](F)C6)nc4N4CCCCC(C(N)=O)C4)C3)c12 (stereo partly drawn) [Example 315, 1-(7-(8-ethyl-7-fluoro-3-hydroxynaphthalen-1-yl)-2-(((2R,7aS)-2-fluorohexahydro-1H-pyrrolizin-7a-yl)methoxy)-5,6,7,8-tetrahydropyrido[3,4-d]pyrimidin-4-yl)azepane-3-carboxamide]	1300	681	-26	4	2	11	9	5	3						
O=S1(=O)NCC2(CCCN(c3nc(OC[C@@]45CCCN4C[C@H](F)C5)nc4c3CCN(c3cc(O)cc5ccc(F)c(F)c35)C4)C2)N1 (stereo partly drawn) [Example 447, 7-(7-(7,8-difluoro-3-hydroxynaphthalen-1-yl)-2-(((2R,7aS)-2-fluorohexahydro-1H-pyrrolizin-7a-yl)methoxy)-5,6,7,8-tetrahydropyrido[3,4-d]pyrimidin-4-yl)-2-thia-1,3,7-triazaspiro[4.5]decane 2,2-dioxide]	202	179	28	35	28	61	< 2	< 2	< 2	23	24	373	170	338	44
CCc1c(F)ccc2cc(O)cc(N3CCc4c(nc(OC[C@@]56CCCN5C[C@H](F)C6)nc4N4CCCn5nc(CNS(=O)(=O)NC)cc5C4)C3)c12 [Example 324, 7-(8-ethyl-7-fluoro-3-hydroxy-1-naphthyl)-2-(((2R,7aS)-2-fluorotetrahydro-1H-pyrrolizin-7a(5H)-yl)methoxy)-4-(2-((methylsulfamoyl)amino)methyl-7,8-dihydro-4H-pyrazolo[1,5-a][1,4]diazepin-5(6H)-yl)-6,8-dihydro-5H-pyrido[3,4-d]pyrimidine]	830	1180	11	21	-1	4	2	4	6						
CCc1c(F)ccc2cc(OC)cc(N3CCc4c(nc(OC[C@@]56CCCN5C[C@H](F)C6)nc4N4CCCn5nc(C(=O)N(C)C)cc5C4)C3)c12 [Example 469, 5-(7-(8-ethyl-7-fluoro-3-methoxynaphthalen-1-yl)-2-(((2R,7aS)-2-fluorohexahydro-1H-pyrrolizin-7a-yl)methoxy)-5,6,7,8-tetrahydropyrido[3,4-d]pyrimidin-4-yl)-N,N-dimethyl-5,6,7,8-tetrahydro-4H-pyrazolo[1,5-a][1,4]diazepine-2-carboxamide]	1200	1980	-1	2	0	0	8	105	24						
CCc1c(F)ccc2cc(O)cc(N3CCc4c(nc(OC[C@@]56CCCN5C[C@H](F)C6)nc4N4CCCCC(COCC(=O)NC)C4)C3)c12 (stereo partly drawn) [Example 245, 2-((1-(7-(8-ethyl-7-fluoro-3-hydroxynaphthalen-1-yl)-2-(((2R,7aS)-2-fluorohexahydro-1H-pyrrolizin-7a-yl)methoxy)-5,6,7,8-tetrahydropyrido[3,4-d]pyrimidin-4-yl)azepan-3-yl)methoxy)-N-methylacetamide]	1460	1640	4	12	10	5	13	9	8	12	15				
CCc1c(F)ccc2cc(O)cc(N3CCc4c(nc(OC[C@@]56CCCN5C[C@H](F)C6)nc4N4CCCCC(CC(N)=O)C4)C3)c12 (stereo partly drawn) [Example 347, 2-(1-(7-(8-ethyl-7-fluoro-3-hydroxynaphthalen-1-yl)-2-(((2R,7aS)-2-fluorohexahydro-1H-pyrrolizin-7a-yl)methoxy)-5,6,7,8-tetrahydropyrido[3,4-d]pyrimidin-4-yl)azepan-3-yl)acetamide]	690	541	28	21	-14	5	7	2	2						
CCc1c(F)ccc2cc(O)cc(N3CCc4c(nc(OC[C@@]56CCCN5C[C@H](F)C6)nc4N4CCCn5nc(C(=O)N6CC7CC6CN7)cc5C4)C3)c12 (stereo partly drawn) [Example 502, 2,5-diazabicyclo[2.2.1]heptan-2-yl(5-(7-(8-ethyl-7-fluoro-3-hydroxynaphthalen-1-yl)-2-(((2R,7aS)-2-fluorohexahydro-1H-pyrrolizin-7a-yl)methoxy)-5,6,7,8-tetrahydropyrido[3,4-d]pyrimidin-4-yl)-5,6,7,8-tetrahydro-4H-pyrazolo[1,5-a][1,4]diazepin-2-yl)methanone]	124	1310	11	7	8	5	< 2	3	< 2	22	7				

— patent US20250368649A1, “TETRAHYDROPYRIDOPYRIMIDINE PAN-KRAS INHIBITORS” (Mirati Therapeutics, Inc., priority 2022, published 2025)
